In patent US9463337B2, “Multifunctional hair color protector” (GALAXY SURFACTANTS LTD., priority 2013, dated 2016):

Key:
[1] = Substantivity (deposition) on hair tresses; conditions: 0.5% aqueous solution/dispersion on hair tresses
[2] = Zeta potential, Malvern Zetasizer Nano; format: physicochemical; conditions: 1% dispersion
Text: Also the high zeta potential ensures the stability of colloidal dispersions.

[3] = Viscosity boosting in SLES/CAPB shampoo formulation; format: physicochemical
Procedure: A typical placebo shampoo base was prepared with sodium lauryl ether sulphate (12%), cocoamidopropyl betaine (4%), EDTA disodium salt (0.1%), preservative (1%, phenoxy ethanol containing four parabens) and rest deionized water. […] All ingredients were mixed using a Silverson homogenizer thoroughly till a uniform homogeneous mixture was formed.
The base shampoo based on sodium lauryl ether sulphate (2EO) and cocoamidopropyl betaine was prepared as described in Example 4.

[4] = Hair color protection (anti-fade) through rinse-off conditioner, Hunter L* a* b*; conditions: rinse-off conditioner with MCBDC vs placebo, ten wash/UV cycles, five hours total UV exposure
Procedure: They were dyed using L'Oreal's Burgundy color as per the protocol described by the dye manufacturer.
Hair coloring (hair dyeing) process is performed as recommended by the marketed product. The color and the developer were mixed in ratio of 1:1 and shampooed hair tresses were treated with the same. The color and developer mixture was applied uniformly to the hair tresses and covered with the aluminum foil for twenty minutes. After this the hair tresses were washed with warm water. […] The ‘Placebo’ and ‘Treated’ hair tresses were exposed to UV radiation, total exposure of five hours through total to washing cycles comprising, shampooing, conditioning, rinsing and UV exposure of 30 mins at time using the equipment described in Example 5. The fading of color of the sets of hair tresses, Control, Placebo and Treated was measured on the Hunter instrument, Labscan XE spectrophotometer. The total color loss (ΔE) is assessed by the change in L* a* b* scale using the equation ΔE=[(ΔL)^2+(Δa)^2+(Δb)^2]^1/2.

[5] = tested on: Staphylococcus aureus ATCC 653; assay: Challenge test on aqueous paste (30%); format: cell-based; conditions: 30% aqueous paste, 25° C.
Procedure: (§1) Following strains of Gram positive, Gram negative bacteria and yeast and mold were used for the challenge test. Staphylococcus aureus ATCC 653, Escherichia coli ATCC 8739, Pseudomonas aeruginosa ATCC 15442, Candida albicans ATCC 10231, and Aspergillus niger ATCC 16404.
(§2) The test is conducted in the six sterile containers each containing a fix equal amount of test sample. Each container was inoculated with a 1% of standardized Inoculum of the microorganism.
(§3) The initial concentration of the viable microorganism in each test preparation is estimated based on the concentration of microorganism in each of the standardized Inoculum as determined by the plate count method.
(§4) Each container is incubated at 25° C. The aliquot of sample of each container is removed at appropriate intervals of time 0 day, 24 hrs, 48 hrs, and 7 days, 14 days, 21 days and 28 days.

[6] = tested on: Escherichia coli ATCC 8739; assay: Challenge test on aqueous paste (30%); format: cell-based; conditions: 30% aqueous paste, 25° C.
Procedure: as §1, §2, §3, §4

[7] = tested on: Pseudomonas aeruginosa ATCC 15442; assay: Challenge test on aqueous paste (30%); format: cell-based; conditions: 30% aqueous paste, 25° C.
Procedure: as §1, §2, §3, §4

[8] = tested on: Candida albicans ATCC 10231; assay: Challenge test on aqueous paste (30%); format: cell-based; conditions: 30% aqueous paste, 25° C.
Procedure: as §1, §2, §3, §4

[9] = tested on: Aspergillus niger ATCC 16404; assay: Challenge test on aqueous paste (30%); format: cell-based; conditions: 30% aqueous paste, 25° C.
Procedure: as §1, §2, §3, §4

UV absorption of MCBDC = format: physicochemical
Text: MCDBC is obtained as practically odorless white paste and has solids content of 30% (Example 2). The product as such has absorbance (E 1%, 1 cm) of 130 at λ max of 306 nm in ethanol.
Its molar extinction coefficient c is 28,000 when measured at same λ max
The white pasty mass that is practically odorless had E1% 1 cm of 130 at λ max 306 nm in EtOH.

[10] = Combing force on Diastron tensile tester after shampoo application; conditions: shampoo containing MCBDC (2%), one application, as compared to placebo shampoo
[11] = Surface tension of water (surface activity); format: physicochemical
[12] = tested on: P. aeruginosa, E. coli, S. aureus, Candida albicans and A. niger; assay: CTFA challenge test, overall outcome; format: cell-based; conditions: 30% aqueous paste
Text: It was challenge tested with both Gram negative, Gram positive bacteria and yeast and mold by the standard challenge test protocol recommended by CTFA. The test organisms used were P. aeruginosa, E. coli, S. aureus, Candida albicans and A. niger.
as §1, §2, §3, §4

[13] = Sensory evaluation of shampooed hair; conditions: shampoo containing 2.0% MCBDC vs base shampoo, panel of 10
Procedure: Sensory Evaluation of shampooed hair: The subjective evaluation was conducted by the panel of 10. The evaluator scored tresses of the scale of 1 to 2.

[14] = Hair protection against UV induced damage through rinse-off conditioner (combing force); conditions: rinse-off conditioner with 2% MCBDC vs placebo conditioner
Procedure: Double bleached European hair were shampooed with the placebo shampoo of Example 4 and conditioned according to the following protocol. The details of UV chamber and exposure conditions are given below.
Placebo shampoo of Example 4 was applied for 1 minute to European hair and rinsed the tresses with water for one minute 25° C. with controlled finger movements. This was followed by conditioner application for one minute application time, one minute contact time and one and half minute for rinsing off with warm water (40° C.).
Treated hair tresses were exposed to UV radiation with the help of UV lamp for 48 hours. UV exposed hair tresses were then subjected to combing force evaluation on Diastron tensile tester.
Two tresses per treatment were used. The treated tresses were irradiated with UV chamber which is equipped with two tubes emitting UV light in short UV (254 nm) and long UV 315-400 nm) regions. Sankyo Denki G8TS tube with UV output of 2.5 W was used as short UV light source while Sankyo Denki F8T5BLB backlight—blue tube with UV output of 1.4 W was used as long UV light source. Washing and UV exposure was given in the following sequence for 50 h. UV exposed tresses were washed with isopropanol to remove the quaternary followed by combing force measurement on Diastron Tensile Tester (MTT 175).

COc1cc(O)c(C(=O)c2ccccc2)cc1S(=O)(=O)O [B-4, Benzophenone-4]
amount deposited on hair (substantivity) [1]: 276 μg/g of hair

p-methoxy cinnamidopropyl behenyl dimethyl ammonium chloride [MCBDC]
Zeta potential [2]: +47 mV | change in viscosity of shampoo formulation ([3]; MCBDC 0.5% to 2.0% in base (3000 cps, salt 0.7%), Brookfield spindle No 4, 12 rpm, 25° C.): linear increase in viscosity | viscosity of shampoo ([3]; shampoo with 2% MCBDC, placebo shampoo 3000 cps): 18,000 cps | total color loss (ΔE) [4]: Lower ΔE | TVC S. aureus ([5]; 0 hr): 3 × 10^6 cfu/gm | TVC S. aureus ([5]; 24 hr): <10 cfu/gm | TVC S. aureus ([5]; 48 hr): <10 cfu/gm | TVC S. aureus ([5]; 7 days): <10 cfu/gm | TVC S. aureus ([5]; 14 days): <10 cfu/gm | TVC S. aureus ([5]; 21 days): <10 cfu/gm | TVC S. aureus ([5]; 28 days): <10 cfu/gm | TVC E. coli ([6]; 0 hr): 0.41 × 10^4 cfu/gm | TVC E. coli ([6]; 24 hr): <10 cfu/gm | TVC E. coli ([6]; 48 hr): <10 cfu/gm | TVC E. coli ([6]; 7 days): <10 cfu/gm | TVC E. coli ([6]; 14 days): <10 cfu/gm | TVC E. coli ([6]; 21 days): <10 cfu/gm | TVC E. coli ([6]; 28 days): <10 cfu/gm | TVC Ps. Aeruginosa ([7]; 0 hr): 0.43 × 10^5 cfu/gm | TVC Ps. Aeruginosa ([7]; 24 hr): 4.16 × 10^4 cfu/gm | TVC Ps. Aeruginosa ([7]; 48 hr): 4.16 × 10^4 cfu/gm | TVC Ps. Aeruginosa ([7]; 7 days): <10 cfu/gm | TVC Ps. Aeruginosa ([7]; 14 days): <10 cfu/gm | TVC Ps. Aeruginosa ([7]; 21 days): <10 cfu/gm | TVC Ps. Aeruginosa ([7]; 28 days): <10 cfu/gm | TVC C. albicans ([8]; 0 hr): 0.6 × 10^3 cfu/gm | TVC C. albicans ([8]; 24 hr): <10 cfu/gm | TVC C. albicans ([8]; 48 hr): <10 cfu/gm | TVC C. albicans ([8]; 7 days): <10 cfu/gm | TVC C. albicans ([8]; 14 days): <10 cfu/gm | TVC C. albicans ([8]; 21 days): <10 cfu/gm | TVC C. albicans ([8]; 28 days): <10 cfu/gm | TVC Asp. niger ([9]; 0 hr): 0.78 × 10^5 cfu/gm | TVC Asp. niger ([9]; 24 hr): 1.16 × 10^1 cfu/gm | TVC Asp. niger ([9]; 48 hr): 2.03 × 10^2 cfu/gm | TVC Asp. niger ([9]; 7 days): <10 cfu/gm | TVC Asp. niger ([9]; 14 days): <10 cfu/gm | TVC Asp. niger ([9]; 21 days): <10 cfu/gm | TVC Asp. niger ([9]; 28 days): <10 cfu/gm | molar extinction coefficient (UV absorption of MCBDC; at λ max 306 nm): 28,000 | absorbance (E 1%, 1 cm) (UV absorption of MCBDC; λ max 306 nm in ethanol, product as such, paste with solids content 30%): 130 | reduction in combing force, dry combing [10]: 19.40% | reduction in combing force, wet combing [10]: 51.08% | Drop in surface tension of water [11]: 35 dynes | surface tension of water ([11]; at 1.0%, 30° C., reduced from 72 Mn/m): 35 Mn/m | preservation outcome of challenge test [12]: self preserving | sensorial evaluation [13]: significant enhancement of sensory attributes | reduction in combing force after UV exposure, dry combing [14]: about 30% | reduction in combing force after UV exposure, wet combing [14]: about 30%
